Tests used:
E. coli (K-12 strain) = experiment: Antimicrobial effect, turbidity in NUTRIENT BROTH; format: cell-based; set-up: key: “+” indicates that turbidity increased after incubation; “−” indicates no increase in turbidity; settings: 0.1% salt, pH 6.8, about 10^7 cells/ml, 37° C. for 24 hours
Protocol: (§1) To NUTRIENT BROTH (produced by DIFCO), 0.1% of an L-ascorbic acid 2-phosphate salt was added thereto, and the pH was adjusted to 6.8 using hydrochloric acid or sodium hydroxide. Using 5 ml of the medium thus prepared, test bacterium were inoculated in a concentration of about 10^7 cells/ml and incubated in a test tube at 37° C. for 24 hours. […] As a control, the same test was performed using a medium not containing an L-ascorbic acid 2-phosphate salt.

B. subtilis (168 strain) = experiment: Antimicrobial effect, turbidity in NUTRIENT BROTH; format: cell-based; set-up: key: “+” indicates that turbidity increased after incubation; “−” indicates no increase in turbidity; settings: 0.1% salt, pH 6.8, about 10^7 cells/ml, 37° C. for 24 hours
Protocol: as §1

[1] = Stability in buffer solution, storage at 50° C. for 476 hours, HPLC; format: physicochemical; settings: for Stability (100% = concentration before storage) pH: 8: about 0.1% in 50 mM Tris-HCl, pH: 8, stored at 50° C. for 476 hours; for Stability (100% = concentration before storage) pH: 5: about 0.1% in 50 mM acetic acid-NaOH, pH: 5, stored at 50° C. for 476 hours
Protocol: In the Examples and Test Examples, the analysis of an L-ascorbic acid 2-phosphate salt or an ion thereof was performed using an Ap-containing solution having a known concentration (prepared from L-ascorbic acid 2-phosphate magnesium salt) as a standard by an HPLC method using a Shodex IEC DEAE-825 resin (ammonium acetate 10 mM→1M gradient, detected spectrophotometrically at 265 nm). The elemental analysis was performed by an ICP emission method, flame photometry and an ion chromatography method. Unless otherwise indicated, the reagents used herein were commercially available reagents.
The stability of L-ascorbic acid 2-phosphate zinc salt was compared to that of L-ascorbic acid 2-phosphate magnesium salt. Each salt was dissolved in a buffer solution (50 mM acetic acid-NaOH, pH: 5, or 50 mM Tris-HCl, pH: 8). to a concentration of about 0.1% and stored at 50° C. for 476 hours. The concentrations of the L-ascorbic acid 2-phosphate before and after storage were analyzed by the HPLC method.

[2] = in water; background statement on conventionally known salts; cited from earlier work
Solubility in water = format: physicochemical
[3] = listed as L-ascorbic acid 2-phosphate zinc salt (Example 1)
[4] = listed as L-ascorbic acid 2-phosphate zinc salt (Example 2)

Structure (SMILES)	Increase in turbidity after incubation, E. coli (K-12 strain) (E. coli (K-12 strain))	Increase in turbidity after incubation, B. subtilis (168 strain) (B. subtilis (168 strain))	Concentration of aqueous solution that can be formed [2]	also measured
O=C1O[C@H]([C@@H](O)CO)C(O)=C1OP(=O)([O-])[O-].[Zn+2] [Example 1, L-ascorbic acid 2-phosphate zinc salt]	−	−		Stability (100% = concentration before storage) pH: 8 [1, 3]: 93%; Stability (100% = concentration before storage) pH: 5 [1, 3]: 91%
O=C1O[C@H]([C@@H](O)CO)C(O)=C1OP(=O)([O-])[O-].[Mg+2] [L-ascorbic acid 2-phosphate magnesium salt]	+	+	< 30%	Stability (100% = concentration before storage) pH: 8 [1]: 95%; Stability (100% = concentration before storage) pH: 5 [1]: 82%
O=C1O[C@H]([C@@H](O)CO)C(O)=C1OP(=O)([O-])[O-].[Zn+2] [L-ascorbic acid 2-phosphate zinc salt]				Concentration of aqueous solution easily formed (Solubility in water): ≥ 50 wt %
O=C1O[C@H]([C@@H](O)CO)C(O)=C1OP(=O)([O-])[O-].[Na+].[Na+] [Sodium salt, Sodium L-ascorbic acid 2-phosphate]	+	+	about 30%	
O=C1O[C@H]([C@@H](O)CO)C(O)=C1OP(=O)([O-])[O-].[Zn+2] [Example 2, L-ascorbic acid 2-phosphate zinc salt]				Stability (100% = concentration before storage) pH: 8 [1, 4]: 95%; Stability (100% = concentration before storage) pH: 5 [1, 4]: 92%

Source: patent US6420419B1, “L-ascorbic acid 2-phosphate zinc salt and process for manufacturing the same” (Showa Denko Kabushiki Kaisha, priority 1997, dated 2002)
